# Reference: ChEMBL document CHEMBL1201862, “PubChem BioAssay data set” (2004)
# Active and inactive are the calls of the source.
# What was measured:
# [1] = biological target: Dual specificity tyrosine-phosphorylation-regulated kinase 1B (Homo sapiens, UniProt Q9Y463); assay: Navigating the Kinome. Panel member name: DYRK1B; type: functional
# [2] = biological target: Tyrosine-protein kinase receptor TYRO3 (Homo sapiens, UniProt Q06418); type: functional;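 further: TYRO3 value obtained as one member of a kinome-wide profiling panel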
# [3] = Vero cell cytotoxicity, cytotoxicity control for M. tuberculosis inhibitor project, purified and synthesized samples, set 3 (AID 504684); type: functional
# [4] = A Cell Based Secondary Assay to Explore Cytotoxicity in THP-1 Cells of Compounds that Modulate Mycobacterium tuberculosis in Media Containing Glycerol versus Media without Glycerol (2).; type: functional
# [5] = A Cell Based Secondary Assay to Explore Cytotoxicity in HepG2 Cells of Compounds that Modulate Mycobacterium tuberculosis in Media Containing Glycerol versus Media without Glycerol (2).; type: functional
# [6] = Vero cell cytotoxicity, dose response, cytotoxicity control for M. tuberculosis growth inhibitor project, Vero cells, purified and synthesized compounds, set 5 (AID 504909); type: functional; conditions: Mycobacterium tuberculosis
# [7] = THP-1 cell cytotoxicity, cytotoxicity control, set 4 (AID 504911); type: functional; conditions: Mycobacterium tuberculosis
# [8] = Vero cell cytotoxicity, dose response, cytotoxicity control for M. tuberculosis growth inhibitor project, Vero cells, purified and synthesized compounds, set 4 (AID 504854); type: functional; conditions: Mycobacterium tuberculosis
# [9] = THP-1 cell cytotoxicity, dose response, cytotoxicity control, set 3 (AID 504852); type: functional; conditions: Mycobacterium tuberculosis
# [10] = biological target: Protein disulfide-isomerase (Homo sapiens, UniProt P07237); assay: inhibition of PDI-driven insulin aggregation – biochemical, turbidity, absorbance, cherry-picked samples, dose response (AID 602350); type: functional
# [11] = biological target: Dual specificity protein kinase CLK4 (Homo sapiens, UniProt Q9HAZ1); type: functional
# [12] = biological target: Cyclin-dependent kinase 8 (Homo sapiens, UniProt P49336); assay: Navigating the Kinome. Panel member name: CDK8; type: functional
# Protein Rev = Protein Rev (Human immunodeficiency virus type 1 group M subtype B (isolate HXB2)(HIV-1), UniProt P04618); assay: blockers of HIV Rev/RRE RNA complex – biochemical, fluorescence polarization, HIV-1, dose response (AID 434976); set-up: species or system Human immunodeficiency virus 1
# [13] = biological target: T1, Endoribonuclease toxin MazF (Escherichia coli K-12, UniProt P0AE70); assay: substrate-only fluorescence increase artefacts – biochemical, single-stranded RNase substrate, counter-screen for MazEF activator project, dose response (AID 588502); type: functional
# [14] = biological target: Female germline-specific tumor suppressor gld-1 (Caenorhabditis elegans, UniProt Q17339); assay: blockers of GLD-1/TGE RNA complex formation – biochemical, fluorescence polarization, C. elegans, dose response (AID 2802);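 further: fluorescence polarization of labeled TGE RNA bound by purified gld-1 protein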
# Caspase-3 = biological target: T2, Caspase-3 (Homo sapiens, UniProt P42574); assay: activation of caspase-3 zymogen – biochemical, absorbance, dose response (AID 489014)
# T2 sequence (P42574 whole entry): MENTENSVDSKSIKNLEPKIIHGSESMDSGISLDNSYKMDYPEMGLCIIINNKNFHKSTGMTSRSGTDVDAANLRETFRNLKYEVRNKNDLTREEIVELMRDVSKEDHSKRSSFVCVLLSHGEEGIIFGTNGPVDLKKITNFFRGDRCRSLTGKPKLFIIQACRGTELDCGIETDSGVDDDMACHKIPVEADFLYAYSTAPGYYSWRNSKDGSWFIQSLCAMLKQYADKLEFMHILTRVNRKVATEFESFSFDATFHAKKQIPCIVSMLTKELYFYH
# Caspase-7 = Caspase-7 (Homo sapiens, UniProt P55210); assay: activation of caspase-7 zymogen – biochemical, absorbance, counter-screen for procaspase-3 activator project, dose response (AID 489013)
# [15] = biological target: T1, Endoribonuclease toxin MazF; assay: activation of MazEF endoribonuclease cleavage – biochemical, fluorescence, single-stranded RNA substrate, uHTS hits, dose response (AID 588481); type: functional
# [16] = biological target: Vascular endothelial growth factor receptor 2 (Homo sapiens, UniProt P35968); type: functional
# Aurora kinase B = Aurora kinase B (Homo sapiens, UniProt Q96GD4); type: functional
# Aurora kinase A = Aurora kinase A (Homo sapiens, UniProt O14965); type: functional;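 further: value from the Navigating the Kinome kinase panel profiling, panel entry STK6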
# T1 sequence (P0AE70 whole entry): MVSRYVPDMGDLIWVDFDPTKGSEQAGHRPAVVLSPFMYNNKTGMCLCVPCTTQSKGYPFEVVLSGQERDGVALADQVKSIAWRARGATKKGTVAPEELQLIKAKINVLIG
# Chain of Vascular endothelial growth factor receptor 2 (P35968 whole entry): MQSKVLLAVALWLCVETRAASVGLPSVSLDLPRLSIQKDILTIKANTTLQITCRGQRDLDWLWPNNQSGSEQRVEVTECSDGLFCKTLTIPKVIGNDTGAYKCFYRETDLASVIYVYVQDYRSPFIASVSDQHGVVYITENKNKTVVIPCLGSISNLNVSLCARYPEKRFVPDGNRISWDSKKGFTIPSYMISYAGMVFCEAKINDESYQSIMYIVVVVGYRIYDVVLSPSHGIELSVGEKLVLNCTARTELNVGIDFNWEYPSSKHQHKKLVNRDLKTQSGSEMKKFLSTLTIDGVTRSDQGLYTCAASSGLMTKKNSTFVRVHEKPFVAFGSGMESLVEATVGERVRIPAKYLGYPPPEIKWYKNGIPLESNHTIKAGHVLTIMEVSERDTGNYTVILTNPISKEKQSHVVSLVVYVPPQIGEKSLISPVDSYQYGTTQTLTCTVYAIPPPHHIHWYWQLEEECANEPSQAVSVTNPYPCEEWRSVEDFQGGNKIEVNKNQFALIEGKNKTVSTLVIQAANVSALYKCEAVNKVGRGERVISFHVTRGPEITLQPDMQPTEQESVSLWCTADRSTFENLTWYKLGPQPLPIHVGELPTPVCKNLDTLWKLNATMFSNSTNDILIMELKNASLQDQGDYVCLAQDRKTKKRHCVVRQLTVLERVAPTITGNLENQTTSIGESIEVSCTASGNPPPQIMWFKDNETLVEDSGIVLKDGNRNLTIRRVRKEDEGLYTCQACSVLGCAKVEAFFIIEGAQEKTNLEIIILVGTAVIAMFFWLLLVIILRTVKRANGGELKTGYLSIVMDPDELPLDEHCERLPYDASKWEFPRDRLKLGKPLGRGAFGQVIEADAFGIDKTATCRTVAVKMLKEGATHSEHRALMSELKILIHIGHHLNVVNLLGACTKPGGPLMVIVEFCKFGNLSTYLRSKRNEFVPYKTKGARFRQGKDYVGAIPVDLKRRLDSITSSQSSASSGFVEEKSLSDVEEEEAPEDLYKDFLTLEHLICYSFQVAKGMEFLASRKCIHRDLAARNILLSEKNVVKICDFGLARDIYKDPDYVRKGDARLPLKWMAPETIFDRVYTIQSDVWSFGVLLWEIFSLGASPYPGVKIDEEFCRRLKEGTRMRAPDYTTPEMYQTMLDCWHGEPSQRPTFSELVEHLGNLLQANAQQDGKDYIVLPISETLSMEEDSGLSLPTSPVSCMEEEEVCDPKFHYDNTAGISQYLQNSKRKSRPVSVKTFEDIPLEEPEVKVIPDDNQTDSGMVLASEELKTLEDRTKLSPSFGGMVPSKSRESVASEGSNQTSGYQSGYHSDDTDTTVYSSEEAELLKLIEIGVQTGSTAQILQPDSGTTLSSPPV
# Chain of Aurora kinase B (Q96GD4 whole entry): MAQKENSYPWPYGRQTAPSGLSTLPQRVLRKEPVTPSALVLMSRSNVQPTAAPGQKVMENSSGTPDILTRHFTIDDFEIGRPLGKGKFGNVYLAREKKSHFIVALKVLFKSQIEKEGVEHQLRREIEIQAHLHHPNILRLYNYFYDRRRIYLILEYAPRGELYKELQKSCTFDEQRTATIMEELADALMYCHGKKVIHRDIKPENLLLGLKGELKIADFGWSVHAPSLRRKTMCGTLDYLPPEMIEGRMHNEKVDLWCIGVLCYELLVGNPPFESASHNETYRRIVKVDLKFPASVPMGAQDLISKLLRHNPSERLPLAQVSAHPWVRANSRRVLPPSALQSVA
# Chain of Protein disulfide-isomerase (P07237 whole entry): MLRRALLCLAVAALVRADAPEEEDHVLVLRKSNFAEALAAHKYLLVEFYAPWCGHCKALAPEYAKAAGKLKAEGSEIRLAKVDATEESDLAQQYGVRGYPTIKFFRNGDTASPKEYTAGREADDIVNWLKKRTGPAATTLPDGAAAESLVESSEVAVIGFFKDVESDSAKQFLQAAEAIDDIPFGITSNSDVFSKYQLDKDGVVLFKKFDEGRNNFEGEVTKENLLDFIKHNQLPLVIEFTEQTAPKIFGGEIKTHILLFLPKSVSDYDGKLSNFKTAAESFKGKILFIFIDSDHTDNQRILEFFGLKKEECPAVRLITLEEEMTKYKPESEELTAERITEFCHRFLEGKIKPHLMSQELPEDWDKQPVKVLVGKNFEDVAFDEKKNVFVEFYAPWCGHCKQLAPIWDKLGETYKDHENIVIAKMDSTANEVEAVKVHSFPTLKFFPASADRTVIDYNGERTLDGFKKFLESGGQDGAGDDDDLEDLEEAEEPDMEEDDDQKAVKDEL
# Chain of Female germline-specific tumor suppressor gld-1 (Q17339 whole entry): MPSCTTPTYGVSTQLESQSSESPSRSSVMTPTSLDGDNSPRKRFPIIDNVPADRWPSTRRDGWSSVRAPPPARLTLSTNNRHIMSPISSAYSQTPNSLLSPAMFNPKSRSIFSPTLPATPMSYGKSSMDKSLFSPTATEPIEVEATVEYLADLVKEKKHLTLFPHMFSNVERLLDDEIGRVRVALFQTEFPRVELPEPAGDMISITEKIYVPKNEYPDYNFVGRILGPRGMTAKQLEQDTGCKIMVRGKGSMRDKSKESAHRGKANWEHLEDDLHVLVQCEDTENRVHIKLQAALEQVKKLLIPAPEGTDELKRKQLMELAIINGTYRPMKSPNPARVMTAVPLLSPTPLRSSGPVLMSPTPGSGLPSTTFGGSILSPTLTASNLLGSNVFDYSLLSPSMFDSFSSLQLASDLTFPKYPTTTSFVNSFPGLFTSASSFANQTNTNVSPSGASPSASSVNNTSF
# Chain of Cyclin-dependent kinase 8 (P49336 whole entry): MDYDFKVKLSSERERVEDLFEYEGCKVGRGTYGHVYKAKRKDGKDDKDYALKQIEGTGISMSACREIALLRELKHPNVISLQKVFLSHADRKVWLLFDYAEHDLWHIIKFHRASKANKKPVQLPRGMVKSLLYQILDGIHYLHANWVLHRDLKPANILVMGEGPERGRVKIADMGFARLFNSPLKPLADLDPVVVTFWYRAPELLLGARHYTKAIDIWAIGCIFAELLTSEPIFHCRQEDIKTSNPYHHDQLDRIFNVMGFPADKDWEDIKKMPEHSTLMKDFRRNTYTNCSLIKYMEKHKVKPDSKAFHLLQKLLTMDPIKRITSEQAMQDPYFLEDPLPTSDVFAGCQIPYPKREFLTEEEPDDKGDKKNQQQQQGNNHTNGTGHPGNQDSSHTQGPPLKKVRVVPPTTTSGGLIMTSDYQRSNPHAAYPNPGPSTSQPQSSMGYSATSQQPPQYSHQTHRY
# Chain of Dual specificity protein kinase CLK4 (Q9HAZ1 whole entry): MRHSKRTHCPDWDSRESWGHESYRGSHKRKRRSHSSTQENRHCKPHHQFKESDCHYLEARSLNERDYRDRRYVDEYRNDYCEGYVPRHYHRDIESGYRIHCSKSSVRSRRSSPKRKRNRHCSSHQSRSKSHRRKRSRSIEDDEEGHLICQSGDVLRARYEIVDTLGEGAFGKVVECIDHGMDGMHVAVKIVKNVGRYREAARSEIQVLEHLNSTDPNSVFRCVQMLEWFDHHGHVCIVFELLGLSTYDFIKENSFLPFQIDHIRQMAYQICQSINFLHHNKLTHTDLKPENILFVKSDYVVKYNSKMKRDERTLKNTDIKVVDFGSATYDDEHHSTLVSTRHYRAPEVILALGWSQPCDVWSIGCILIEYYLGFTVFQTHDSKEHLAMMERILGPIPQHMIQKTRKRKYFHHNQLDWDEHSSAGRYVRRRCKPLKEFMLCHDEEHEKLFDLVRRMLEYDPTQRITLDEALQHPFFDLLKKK
# Chain of Caspase-7 (P55210 24-198 limits assumed): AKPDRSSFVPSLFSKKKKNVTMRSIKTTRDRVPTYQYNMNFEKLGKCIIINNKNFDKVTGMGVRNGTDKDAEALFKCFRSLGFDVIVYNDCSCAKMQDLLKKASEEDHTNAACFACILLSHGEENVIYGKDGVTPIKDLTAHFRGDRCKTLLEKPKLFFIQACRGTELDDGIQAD
# Chain of Caspase-7 (P55210 207-303 limits assumed): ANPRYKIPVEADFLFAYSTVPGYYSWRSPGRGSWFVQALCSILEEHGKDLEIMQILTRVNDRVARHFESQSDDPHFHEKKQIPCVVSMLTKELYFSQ
# Chain of Tyrosine-protein kinase receptor TYRO3 (Q06418 whole entry): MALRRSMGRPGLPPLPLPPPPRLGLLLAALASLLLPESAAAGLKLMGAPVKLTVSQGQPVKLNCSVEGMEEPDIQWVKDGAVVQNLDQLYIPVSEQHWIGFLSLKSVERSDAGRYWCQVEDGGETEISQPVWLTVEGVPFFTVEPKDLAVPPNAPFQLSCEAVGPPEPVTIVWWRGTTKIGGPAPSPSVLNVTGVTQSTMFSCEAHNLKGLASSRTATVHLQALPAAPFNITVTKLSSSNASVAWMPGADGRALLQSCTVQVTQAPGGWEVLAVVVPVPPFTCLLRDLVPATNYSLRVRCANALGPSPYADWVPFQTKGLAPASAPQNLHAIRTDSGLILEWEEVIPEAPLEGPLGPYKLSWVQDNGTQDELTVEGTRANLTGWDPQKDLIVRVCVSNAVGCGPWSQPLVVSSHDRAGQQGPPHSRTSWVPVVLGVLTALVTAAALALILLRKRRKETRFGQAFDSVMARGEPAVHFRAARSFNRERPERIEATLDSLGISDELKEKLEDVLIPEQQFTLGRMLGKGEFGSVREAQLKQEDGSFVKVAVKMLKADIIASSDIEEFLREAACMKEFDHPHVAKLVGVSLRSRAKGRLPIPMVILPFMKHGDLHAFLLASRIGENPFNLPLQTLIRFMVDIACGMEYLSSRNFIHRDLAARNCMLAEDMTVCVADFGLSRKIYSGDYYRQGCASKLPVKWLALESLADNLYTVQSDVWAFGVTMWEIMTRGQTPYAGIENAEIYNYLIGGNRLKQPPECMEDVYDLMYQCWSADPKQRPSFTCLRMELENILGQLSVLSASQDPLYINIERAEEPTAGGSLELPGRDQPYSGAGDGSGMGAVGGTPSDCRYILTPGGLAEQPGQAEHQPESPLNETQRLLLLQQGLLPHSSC
smiles,measurement,setting,value
O=C1NC(=S)N(c2ccccc2)C1=O,Ki,[1],79.4 µM (active)
same,Ki,[2],79.4 µM (active)
COC(=O)C(Nc1nc(SCC(=O)NC2CCCCC2)nc2ccccc12)c1ccccc1 (stereo unspecified),CC50,[3],73.2 µM (active)
same,CC50,[4],70.9 µM (active)
same,CC50,[5],> 50 µM (active)
same,CC50,[6],> 100 µM (active)
same,CC50,[7],129 µM (active)
same,CC50,[8],66 µM (active)
same,CC50,[9],41.1 µM (active)
C[C@@H]1CN([C@@H](C)CO)C(=O)c2cc(NC(=O)Cc3cn(C)c4ccccc34)ccc2O[C@H]1CN(C)S(=O)(=O)c1ccc(F)cc1,AC50,[10],2.08 µM (active)
O=C(Nc1cccc2[nH]ncc12)NC1CCc2c1cccc2N1CCCC1 (stereo unspecified),Ki,[11],0.794 µM (active)
same,Ki,[12],2.51 µM (active)
CC(=O)Oc1cccc2c1C(=O)c1c(OC(C)=O)cc(C(=O)O)cc1C2=O [DIACEREIN],IC50,Protein Rev,> 75.4 µM (not active)
same,EC50,[13],> 99 µM (inactive)
same,IC50,[14],7.31 µM (active)
same,EC50,Caspase-3,7.89 µM (active)
same,EC50,Caspase-7,14.8 µM (inactive)
same,EC50,[15],> 99 µM (inactive)
COc1ccc(-c2cc(=O)c3c(O)c(OC)c(OC)cc3o2)cc1O [EUPATORIN],Ki,[16],0.794 µM (active)
same,Ki,Aurora kinase B,0.0398 µM (active)
same,Ki,Aurora kinase A,1 µM (active)
